Data published in patent US10837044B2, “Automated method for analyzing and interpreting an antimicrobial susceptibility” (FONDATION MEDITERRANEE INFECTION, priority 2014, dated 2020).

Assays:
Klebsiella oxytoca = assay: antibiogram by diffusion on Mueller-Hinton agar with antibiotic wafers; assay type: cell-based; conditions: Table C1; K. oxytoca phenotype Wild; six wafers, disk loads of Table B
Enterobacter cloacea = assay: as above; assay type: cell-based; conditions: Table C1, six wafers, disk loads of Table B
Enterobacter aerogenes = assay: as above; assay type: cell-based; conditions: Table C1, six wafers, disk loads of Table B
Klebsiella pneumoniae = assay: as above; assay type: cell-based; conditions: for resistance (I, R) or sensitivity (S): Table C1, six wafers, disk loads of Table B; for resistant (I/R) or sensitive (S): Table C2, sixteen wafers, square dish
Proteus mirabilis = assay: as above; assay type: cell-based; conditions: Table C1, six wafers, disk loads of Table B
Escherichia coli = assay: as above; assay type: cell-based; conditions: for resistance (I, R) or sensitivity (S): Table C1, disk loads of Table B; for resistant (I/R) or sensitive (S): Table C2, square dish
BSBL bacteria = conditions: all of the BSBL bacteria in Table C1
Excerpt: Synergies are generated with the method on agar by the antibiotics diffusing in the agar as a result of the fact that providing the distance between two antibiotics is small enough (in the range 2 centimeters (cm) to 2.5 cm for Gram negative bacteria) they are capable of diffusing over a common portion of the agar, and as a result it is the association of the two antibiotics in this specific location that makes it possible, where appropriate, to see the appearance of a new inhibition zone, which is the synergy zone.
In the event of synergy occurring, it is possible to see mechanisms of synergy between two antibiotics since an additional inhibition zone appears generally between the two antibiotics in question. It may be in the form of an enlargement of the diameter around the disk A going towards the disk B if A and B present mutual synergy.
The BSBL phenotype includes a synergy phenotype between ceftriaxone and clavulanic acid, and thus between CRO and TCC or AMC (for all of the BSBL bacteria in the table).

Pseudomonas aeruginosa = assay: antibiogram by diffusion on Mueller-Hinton agar with antibiotic wafers; assay type: cell-based; conditions: Table C1, six wafers, disk loads of Table B
[1] = K. pneumoniae phenotype Carbapenemase
[2] = K. pneumoniae phenotype Hl cephalosporinase
[3] = K. pneumoniae phenotype Hl penicillinase
[4] = K. pneumoniae phenotype Ll penicillinase
[5] = K. pneumoniae phenotype Cephalosporinase + R to aminosides + R to cotrimoxazole
[6] = P. mirabilis phenotype Hl cephalosporinase
[7] = P. mirabilis phenotype Hl penicillinase
[8] = P. mirabilis phenotype Inhibitor resistant penicillinase
[9] = P. mirabilis phenotype Ll penicillinase
[10] = E. coli strain of BSBL phenotype, champagne-cork shaped inhibition zone
[11] = E. coli phenotype BSBL, six wafers
[12] = E. coli phenotype Carbapenemase, six wafers
[13] = E. coli phenotype Hl cephalosporinase, six wafers
[14] = E. coli phenotype Hl penicillinase, six wafers
[15] = E. coli phenotype Inhibitor resistant penicillinase, six wafers
[16] = E. coli phenotype Ll penicillinase, six wafers
[17] = E. coli phenotype Wild, six wafers in a circle
[18] = E. coli phenotype Cephalosporinase + R to fluoroquinolones + R to cotrimoxazole + partial R to aminosides, sixteen wafers
[19] = E. coli phenotype Hl penicillinase + R to fluoroquinolones + R to cotrimoxazole + partial R to aminosides, sixteen wafers
[20] = E. coli phenotype Wild, sixteen wafers in a rectangular grid

Compound | resistance (I, R) or sensitivity (S) (Klebsiella oxytoca) | resistant (I/R) or sensitive (S) (Klebsiella pneumoniae; [5]) | resistant (I/R) or sensitive (S) (Klebsiella pneumoniae; K. pneumoniae phenotype Wild) | resistance (I, R) or sensitivity (S) (Proteus mirabilis; [6]) | resistance (I, R) or sensitivity (S) (Proteus mirabilis; [7]) | resistance (I, R) or sensitivity (S) (Proteus mirabilis; [8]) | resistance (I, R) or sensitivity (S) (Proteus mirabilis; [9]) | resistance (I, R) or sensitivity (S) (Proteus mirabilis; P. mirabilis phenotype Wild) | synergy zone between two antibiotic wafers placed side by side (Escherichia coli; [10]) | resistance (I, R) or sensitivity (S) (Escherichia coli; [11]) | resistance (I, R) or sensitivity (S) (Escherichia coli; [12]) | resistance (I, R) or sensitivity (S) (Escherichia coli; [13]) | resistance (I, R) or sensitivity (S) (Escherichia coli; [14]) | resistance (I, R) or sensitivity (S) (Escherichia coli; [15]) | resistance (I, R) or sensitivity (S) (Escherichia coli; [16]) | resistance (I, R) or sensitivity (S) (Escherichia coli; [17]) | resistant (I/R) or sensitive (S) (Escherichia coli; [18]) | resistant (I/R) or sensitive (S) (Escherichia coli; [19]) | resistant (I/R) or sensitive (S) (Escherichia coli; [20]) | synergy phenotype between antibiotics (BSBL bacteria) | also measured
CO/N=C(\C(=O)N[C@@H]1C(=O)N2C(C(=O)O)=C(CSc3nc(=O)c(=O)[nH]n3C)CS[C@H]12)c1csc(N)n1 [CRO, ceftriaxone] | S | R | R | R | S | S | S | S | synergy zone | R | R | R | S | S | S | S | R | S | S | synergy | resistance (I, R) or sensitivity (S) (Enterobacter cloacea; E. cloacae phenotype BSBL): R; resistance (I, R) or sensitivity (S) (Enterobacter cloacea; E. cloacae phenotype Wild): S; resistance (I, R) or sensitivity (S) (Enterobacter aerogenes; E. aerogenes phenotype BSBL): R; resistance (I, R) or sensitivity (S) (Enterobacter aerogenes; E. aerogenes phenotype Wild): S; resistance (I, R) or sensitivity (S) (Klebsiella pneumoniae; K. pneumoniae phenotype BSBL): I/R; resistance (I, R) or sensitivity (S) (Klebsiella pneumoniae; [1]): R; resistance (I, R) or sensitivity (S) (Klebsiella pneumoniae; [2]): I/R; resistance (I, R) or sensitivity (S) (Klebsiella pneumoniae; [3]): I; resistance (I, R) or sensitivity (S) (Klebsiella pneumoniae; [4]): S; resistance (I, R) or sensitivity (S) (Klebsiella pneumoniae; K. pneumoniae phenotype Wild): S; synergy zone between two antibiotic wafers placed side by side (Escherichia coli; E. coli strain of BSBL phenotype, champagne-cork shaped inhibition zone, listed as ceftriaxone): synergy
amoxicillin-clavulanic acid [AMC] | S | R | R | R | I | R | S | S | synergy zone | R | R | R | I/R | R | S | S | R | I | S | synergy | resistance (I, R) or sensitivity (S) (Enterobacter cloacea; E. cloacae phenotype BSBL): R; resistance (I, R) or sensitivity (S) (Enterobacter cloacea; E. cloacae phenotype Wild): S; resistance (I, R) or sensitivity (S) (Enterobacter aerogenes; E. aerogenes phenotype BSBL): R; resistance (I, R) or sensitivity (S) (Enterobacter aerogenes; E. aerogenes phenotype Wild): S; resistance (I, R) or sensitivity (S) (Klebsiella pneumoniae; K. pneumoniae phenotype BSBL): R; resistance (I, R) or sensitivity (S) (Klebsiella pneumoniae; [1]): R; resistance (I, R) or sensitivity (S) (Klebsiella pneumoniae; [2]): I/R; resistance (I, R) or sensitivity (S) (Klebsiella pneumoniae; [3]): I/R; resistance (I, R) or sensitivity (S) (Klebsiella pneumoniae; [4]): S; resistance (I, R) or sensitivity (S) (Klebsiella pneumoniae; K. pneumoniae phenotype Wild): S; synergy zone between two antibiotic wafers placed side by side (Escherichia coli; E. coli strain of BSBL phenotype, champagne-cork shaped inhibition zone, listed as amoxicillin+clavulanic acid): synergy
ticarcillin-clavulanic acid [TCC] | – | R | R | R | I | R | S | S | presence of a zone of synergy | R | R | R | I/R | R | S | S | R | I | S | synergy | resistance (I, R) or sensitivity (S) (Pseudomonas aeruginosa; P. aeruginosa Abnormal phenotype): R; resistance (I, R) or sensitivity (S) (Pseudomonas aeruginosa; P. aeruginosa phenotype BSBL): I/R; resistance (I, R) or sensitivity (S) (Pseudomonas aeruginosa; P. aeruginosa phenotype Carbapenemase): R; resistance (I, R) or sensitivity (S) (Pseudomonas aeruginosa; P. aeruginosa phenotype Penicillinase): I/R; resistance (I, R) or sensitivity (S) (Pseudomonas aeruginosa; P. aeruginosa phenotype Selective imipenem permeability): S; resistance (I, R) or sensitivity (S) (Pseudomonas aeruginosa; P. aeruginosa phenotype Wild): S; synergy zone between two antibiotic wafers placed side by side (Escherichia coli; E. coli cephalosporinase phenotype (FIGS. 2D, 2E)): absence of a zone of synergy
